# Read-outs that look alike come from different tables or passages of the source.
# Legend:
# [1] = system: HBeAg (surrogate marker for cccDNA) in HepDES19 cells; test: Engineered HepDES19 primary screen assay (HBeAg ELISA); assay type: cell-based, HBV
# Procedure, shortened: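 IC50 values come from 4-parameter logistic fits of HBeAg ELISA signal, the cccDNA surrogate, with CCK-8 run in parallel for viability. Compounds at half-log dilutions with 1% DMSO were applied for 5 days at 37 °C to HepDES19 cells previously cultured 8 days without Tet.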
# [2] = Human microsome stability assay; assay type: in vitro ADME; settings: human liver microsomes, 1 μM test compound, 0.5 mg/mL microsomal protein, 37° C., pH 7.4, 0-30 minutes
# Protocol: The human microsomal stability assay is used for early assessment of metabolic stability of a test compound in human liver microsomes.
# Human liver microsomes (Cat. NO.: 452117, Corning, USA; Cat. NO.: H2610, Xenotech, USA) were preincubated with test compound for 10 minutes at 37° C. in 100 mM potassium phosphate buffer, pH 7.4. The reactions were initiated by adding NADPH regenerating system. The final incubation mixtures contained 1 μM test compound, 0.5 mg/mL liver microsomal protein, 1 mM MgCl2, 1 mM NADP, 1 unit/mL isocitric dehydrogenase and 6 mM isocitric acid in 100 mM potassium phosphate buffer, pH 7.4. After incubation times of 0, 3, 6, 9, 15 and 30 minutes at 37° C., 300 μL of cold ACN (including internal standard) was added to 100 μL incubation mixture to terminate the reaction. Following precipitation and centrifugation, the amount of compound remaining in the samples was determined by LC-MS/MS. Controls of no NADPH regenerating system at zero and 30 minutes were also prepared and analyzed.
# [3] = Hepatitis B virus, HepDES19, 120 h, read-out: IC50 (HBeAg level, HepDES19 primary screen assay), HepDES19 cells, 5 days compound incubation, HBeAg ELISA
SMILES,"IC50 [1, 3]",Clearance of Human microsome [2],"IC50 ([1]; read-out: IC50 (HBeAg level, HepDES19 primary screen assay), HepDES19 cells, 5 days compound incubation, HBeAg ELISA)"
"COc1c(-c2ccc(C(F)(F)F)cc2OCCC(=O)O)oc2c(Cl)cccc2c1=O [Example A047, 3-[2-(8-chloro-3-methoxy-4-oxo-chromen-2-yl)-5-(trifluoromethyl)phenoxy]propanoic acid]",1830 nM,6.15 mL/min/kg,–
"COc1cc(OCC(=O)O)c(-c2cc(=O)c3cccc(Cl)c3o2)cc1OC [Example A050, 2-[2-(8-chloro-4-oxo-chromen-2-yl)-4,5-dimethoxy-phenoxy]acetic acid]",11800 nM,6.15 mL/min/kg,–
"O=C(O)COc1cc(C(F)(F)F)ccc1-c1cc(=O)c2cccc(Cl)c2o1 [Example A051, 2-[2-(8-chloro-4-oxo-chromen-2-yl)-5-(trifluoromethyl)phenoxy]acetic acid]",2410 nM,6.15 mL/min/kg,–
"COc1cc(-c2cc(=O)c3cccc(Cl)c3o2)c(OCCCC(=O)O)cc1Br [Example A058, 4-[5-bromo-2-(8-chloro-4-oxo-chromen-2-yl)-4-methoxy-phenoxy]butanoic acid]",549 nM,6.15 mL/min/kg,–
"Cc1ccc(-c2cc(=O)c3cccc(Cl)c3o2)c(OCCCC(=O)O)c1 [Example A059, 4-[2-(8-chloro-4-oxo-chromen-2-yl)-5-methyl-phenoxy]butanoic acid]",622 nM,8.34 mL/min/kg,–
"COc1cc(OCCCC(=O)O)c(-c2cc(=O)c3cccc(Cl)c3o2)cc1C [Example A060, 4-[2-(8-chloro-4-oxo-chromen-2-yl)-5-methoxy-4-methyl-phenoxy]butanoic acid]",5360 nM,6.15 mL/min/kg,–
"CC(C)(COc1cc(OC(F)(F)F)ccc1-c1cc(=O)c2cccc(Cl)c2o1)C(=O)O [Example A061, 3-[2-(8-chloro-4-oxo-chromen-2-yl)-5-(trifluoromethoxy)phenoxy]-2,2-dimethyl-propanoic acid]",15900 nM,8.78 mL/min/kg,–
"CC(C)(COc1cc(C(F)(F)F)ccc1-c1cc(=O)c2cccc(Cl)c2o1)C(=O)O [Example A062, 3-[2-(8-chloro-4-oxo-chromen-2-yl)-5-(trifluoromethyl)phenoxy]-2,2-dimethyl-propanoic acid]",13000 nM,9.88 mL/min/kg,–
"Cc1ccc(-c2cc(=O)c3cccc(Cl)c3o2)c(OCC(C)(C)C(=O)O)c1 [Example A063, 3-[2-(8-chloro-4-oxo-chromen-2-yl)-5-methyl-phenoxy]-2,2-dimethyl-propanoic acid]",1350 nM,6.15 mL/min/kg,–
"Cc1cc(-c2cc(=O)c3cccc(Cl)c3o2)c(OCC(C)(C)C(=O)O)cc1Cl [Example A064, 3-[5-chloro-2-(8-chloro-4-oxo-chromen-2-yl)-4-methyl-phenoxy]-2,2-dimethyl-propanoic acid]",9590 nM,9.5 mL/min/kg,–
"O=C(O)CCCCOc1cc(C(F)(F)F)ccc1-c1cc(=O)c2cccc(Cl)c2o1 [Example A065, 5-[2-(8-chloro-4-oxo-chromen-2-yl)-5-(trifluoromethyl)phenoxy]pentanoic acid]",1900 nM,6.15 mL/min/kg,–
"COc1cc(OCC2(CC(=O)O)CC2)c(-c2cc(=O)c3cccc(Cl)c3o2)cc1OC [Example A067, 2-[1-[[2-(8-chloro-4-oxo-chromen-2-yl)-4,5-dimethoxy-phenoxy]methyl]cyclopropyl]acetic acid]",1680 nM,6.15 mL/min/kg,–
"O=C(O)CC1(COc2cc(Br)ccc2-c2cc(=O)c3cccc(Cl)c3o2)CC1 [Example A069, 2-[1-[[5-bromo-2-(8-chloro-4-oxo-chromen-2-yl)phenoxy]methyl]cyclopropyl]acetic acid]",2730 nM,6.15 mL/min/kg,–
"CC(C)(Oc1cc(Br)ccc1-c1cc(=O)c2cccc(Cl)c2o1)C(=O)O [Example A070, 2-[5-bromo-2-(8-chloro-4-oxo-chromen-2-yl)phenoxy]-2-methyl-propanoic acid]",630 nM,6.15 mL/min/kg,–
"CC(C)(CCCOc1cc(OC(F)(F)F)ccc1-c1cc(=O)c2cccc(Cl)c2o1)C(=O)O [Example A071, 5-[2-(8-chloro-4-oxo-chromen-2-yl)-5-(trifluoromethoxy)phenoxy]-2,2-dimethyl-pentanoic acid]",6460 nM,7.4 mL/min/kg,–
"O=C(COc1cc(C(F)(F)F)ccc1-c1cc(=O)c2cccc(Cl)c2o1)NC1CC(C(=O)O)C1 (centres unmarked) [Example A074, 3-[[2-[2-(8-chloro-4-oxo-chromen-2-yl)-5-(trifluoromethyl)phenoxy]acetyl]amino]cyclobutanecarboxylic acid]",2380 nM,6.15 mL/min/kg,–
"O=C(O)[C@H]1CCCN1C(=O)CCOc1cc(Br)ccc1-c1cc(=O)c2cccc(Cl)c2o1 [Example A075, (2R)-1-[3-[5-bromo-2-(8-chloro-4-oxo-chromen-2-yl)phenoxy]propanoyl]pyrrolidine-2-carboxylic acid]",2850 nM,6.15 mL/min/kg,–
"O=C(O)[C@@H]1CCCN1C(=O)CCOc1cc(Br)ccc1-c1cc(=O)c2cccc(Cl)c2o1 [Example A076, (2S)-1-[3-[5-bromo-2-(8-chloro-4-oxo-chromen-2-yl)phenoxy]propanoyl]pyrrolidine-2-carboxylic acid]",14100 nM,6.15 mL/min/kg,–
"Cc1ccc(-c2cc(=O)c3cccc(Cl)c3o2)c(OCC(=O)N2CCC[C@@H]2C(=O)O)c1 [Example A077, (2R)-1-[2-[2-(8-chloro-4-oxo-chromen-2-yl)-5-methyl-phenoxy]acetyl]pyrrolidine-2-carboxylic acid]",9000 nM,8.57 mL/min/kg,–
"Cc1ccc(-c2cc(=O)c3cccc(Cl)c3o2)c(OCC(=O)N2CCC[C@H]2C(=O)O)c1 [Example A078, (2S)-1-[2-[2-(8-chloro-4-oxo-chromen-2-yl)-5-methyl-phenoxy]acetyl]pyrrolidine-2-carboxylic acid]",10200 nM,6.15 mL/min/kg,–
"Cc1cc(-c2cc(=O)c3cccc(Cl)c3o2)c(OCC(=O)N2CCC[C@@H]2C(=O)O)cc1Br [Example A079, (2R)-1-[2-[5-bromo-2-(8-chloro-4-oxo-chromen-2-yl)-4-methyl-phenoxy]acetyl]pyrrolidine-2-carboxylic acid]",19000 nM,6.6 mL/min/kg,–
"Cc1cc(-c2cc(=O)c3cccc(Cl)c3o2)c(OCC(=O)N2CCC[C@H]2C(=O)O)cc1Br [Example A080, (2S)-1-[2-[5-bromo-2-(8-chloro-4-oxo-chromen-2-yl)-4-methyl-phenoxy]acetyl]pyrrolidine-2-carboxylic acid]",17500 nM,6.15 mL/min/kg,–
"O=C(O)[C@H]1CCCN1C(=O)COc1cc(C(F)(F)F)ccc1-c1cc(=O)c2cccc(Cl)c2o1 [Example A081, (2R)-1-[2-[2-(8-chloro-4-oxo-chromen-2-yl)-5-(trifluoromethyl)phenoxy]acetyl]pyrrolidine-2-carboxylic acid]",–,6.15 mL/min/kg,260 nM
"COc1cc(OCCC(=O)NS(=O)(=O)C2CC2)c(-c2cc(=O)c3cccc(Cl)c3o2)cc1OC [Example A085, 3-[2-(8-chloro-4-oxo-chromen-2-yl)-4,5-dimethoxy-phenoxy]-N-cyclopropylsulfonyl-propanamide]",4920 nM,6.15 mL/min/kg,–
"O=C(COc1cc(C(F)(F)F)ccc1-c1cc(=O)c2cccc(Cl)c2o1)NCCO [Example A086, 2-[2-(8-chloro-4-oxo-chromen-2-yl)-5-(trifluoromethyl)phenoxy]-N-(2-hydroxyethyl)acetamide]",1000 nM,9.68 mL/min/kg,–
"Cc1cc(-c2cc(=O)c3cccc(Cl)c3o2)c(OCC(=O)N2CC[C@H](O)C2)cc1Br [Example A088, 2-[4-bromo-2-[2-[(3S)-3-hydroxypyrrolidin-1-yl]-2-oxo-ethoxy]-5-methyl-phenyl]-8-chloro-chromen-4-one]",1110 nM,7.09 mL/min/kg,–
"Cc1cc(-c2cc(=O)c3cccc(Cl)c3o2)c(OCC(=O)N2CC[C@@H](O)C2)cc1Br [Example A089, 2-[4-bromo-2-[2-[(3R)-3-hydroxypyrrolidin-1-yl]-2-oxo-ethoxy]-5-methyl-phenyl]-8-chloro-chromen-4-one]",11900 nM,6.69 mL/min/kg,–
"COc1cc(OCC(=O)NS(=O)(=O)C2CC2)c(-c2cc(=O)c3cccc(Cl)c3o2)cc1OC [Example A091, 2-[2-(8-chloro-4-oxo-chromen-2-yl)-4,5-dimethoxy-phenoxy]-N-cyclopropylsulfonyl-acetamide]",888 nM,6.15 mL/min/kg,–
